Measured values as given in patent US8993756B2 (Merck Sharp & Dohme Corp., priority 2011, dated 2015).

Experiments:
JAK3 = JAK3 (Homo sapiens (Human), UniProt P52333); test: Jak Biochemical HTRF Assay (JAK3); settings: recombinant GST-tagged catalytic domain, [ATP] 2.9 μM
Experimental: (§1) Biological Assays Jak Biochemical HTRF Assay Protocol
The ability of compounds to inhibit the activity of JAK1, JAK2, JAK3, and Tyk2 was measured using a recombinant purified GST-tagged catalytic domain for each enzyme (Invitrogen JAK1 #M4290, JAK2 #M4290, JAK3 #M4290, Tyk2 #M4290) in an HTRF format biochemical assay. […] Subsequent reagent additions employed an Agilent Bravo. […] After equilibration, 2 μL of 10×ATP in 1× assay buffer was added to initiate the kinase reaction and the plates were shaken and then incubated at room temperature for 120 minutes. At the end of the incubation, 20 μL of 2× stop buffer (streptavidin-Dylight 650 (Thermo #84547B100 mL), Eu-tagged pY20 antibody (Perkin Elmer #AD0067), EDTA, HEPES, and Triton) was added to quench the reaction. […] After normalization to untreated controls, the percent inhibition of the HTRF signal at each compound concentration was calculated. The plot of percent inhibition versus the log of compound concentration was fit with a 4-parameter dose response equation to calculate IC50 values.

JAK2 = JAK2 (Homo sapiens (Human), UniProt O60674); test: Jak Biochemical HTRF Assay (JAK2); settings: recombinant GST-tagged catalytic domain, [ATP] 8.5 μM
Chain of JAK2 (O60674 849-1124): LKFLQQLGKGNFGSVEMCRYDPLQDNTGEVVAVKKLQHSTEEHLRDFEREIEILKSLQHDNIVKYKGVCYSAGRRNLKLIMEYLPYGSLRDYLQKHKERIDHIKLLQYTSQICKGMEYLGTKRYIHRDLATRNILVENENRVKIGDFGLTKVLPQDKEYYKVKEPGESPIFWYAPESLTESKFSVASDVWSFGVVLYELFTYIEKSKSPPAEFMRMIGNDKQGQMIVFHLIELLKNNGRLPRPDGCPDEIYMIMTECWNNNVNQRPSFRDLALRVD
Experimental: as §1
The ability of compounds to inhibit the activity of JAK1, JAK2, JAK3, and Tyk2 was measured using a recombinant purified GST-tagged catalytic domain for each enzyme (Invitrogen JAK1 #M4290, JAK2 #M4290, JAK3 #M4290, Tyk2 #M4290) in an HTRF format biochemical assay. […] The basic assay protocol is as follows: First, 250 nL of diluted compounds in DMSO were dispensed into the wells of a dry 384-well Black plate (Greiner #781076) using a Labcyte Echo 555 acoustic dispenser. Subsequent reagent additions employed an Agilent Bravo. Next, 18 μL of 1.11× enzyme and 1.11× substrate in 1× assay buffer (Invitrogen kinase buffer # PV3189, 2 mM DTT, 0.05% BSA) were added to the wells and shaken and then preincubated for 30 minutes at room temperature to allow compound binding to equilibrate. After equilibration, 2 μL of 10×ATP in 1× assay buffer was added to initiate the kinase reaction and the plates were shaken and then incubated at room temperature for 120 minutes. At the end of the incubation, 20 μL of 2× stop buffer (streptavidin-Dylight 650 (Thermo #84547B100 mL), Eu-tagged pY20 antibody (Perkin Elmer #AD0067), EDTA, HEPES, and Triton) was added to quench the reaction. Plates were shaken and centrifuged and then incubated 60 minutes at room temperature and then read on a Perkin Elmer Envision (λex=337 nm, λem=665 and 615 nm, TRF delay time=20 μs). HTRF signal=10,000*665 nm reading 615 nm reading. After normalization to untreated controls, the percent inhibition of the HTRF signal at each compound concentration was calculated. The plot of percent inhibition versus the log of compound concentration was fit with a 4-parameter dose response equation to calculate IC50 values.

Chain of JAK3 (P52333 822-1111): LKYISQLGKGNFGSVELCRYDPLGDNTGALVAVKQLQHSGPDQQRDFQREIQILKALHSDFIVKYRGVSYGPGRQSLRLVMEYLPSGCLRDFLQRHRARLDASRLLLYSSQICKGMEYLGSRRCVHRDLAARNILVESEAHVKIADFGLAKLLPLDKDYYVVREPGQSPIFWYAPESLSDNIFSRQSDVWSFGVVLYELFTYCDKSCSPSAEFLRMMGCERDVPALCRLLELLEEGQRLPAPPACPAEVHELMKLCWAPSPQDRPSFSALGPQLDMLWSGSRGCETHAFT

Compound: CCOC(=O)c1c[nH]c2ncnc(-c3ccc(F)cc3)c12 [Example 1-34, ethyl 4-(4-fluorophenyl)-7H-pyrrolo[2,3-d]pyrimidine-5-carboxylate]
- IC50 (JAK3; given as range class): 10 to 500 nM
- IC50 (JAK2; given as range class): 10 to 500 nM

Compound: CCOC(=O)c1c[nH]c2ncnc(-c3cccc(NC(=O)CC#N)c3)c12 [Example 5-4, ethyl 4-{3-[(cyanoacetyl)amino]phenyl}-7H-pyrrolo[2,3-d]pyrimidine-5-carboxylate]
- IC50 (JAK3; given as range class): 10 to 500 nM
- IC50 (JAK2; given as range class): 10 to 500 nM

Compound: CCOC(=O)c1c[nH]c2ncnc(-c3cccc(NC(=O)C=C4CCCC4)c3)c12 [Example 5-37, ethyl 4-{3-[(cyclopentylideneacetyl)amino]phenyl}-7H-pyrrolo[2,3-d]pyrimidine-5-carboxylate]
- IC50 (JAK3; given as range class): 10 to 500 nM
- IC50 (JAK2; given as range class): > 500 nM

Compound: C=C(C)C(=O)Nc1cccc(-c2ncnc3[nH]cc(C(=O)OC)c23)c1 [Example 11-2, methyl 4-{3-[(2-methylacryloyl)amino]phenyl}-7H-pyrrolo[2,3-d]pyrimidine-5-carboxylate]
- IC50 (JAK3): 2 nM
- IC50 (JAK2): > 1500 nM

Compound: CCOC(=O)c1c[nH]c2ncnc(-c3cnn4c3CCCC4)c12 [Example 1-62, ethyl 4-(4,5,6,7-tetrahydropyrazolo[1,5-a]pyridin-3-yl)-7H-pyrrolo[2,3-d]pyrimidine-5-carboxylate]
- IC50 (JAK3; given as range class): 10 to 500 nM
- IC50 (JAK2; given as range class): > 500 nM

Compound: CCOC(=O)c1c[nH]c2ncnc(-c3cccc(OC)c3)c12 [Example 1-17, ethyl 4-(3-methoxyphenyl)-7H-pyrrolo[2,3-d]pyrimidine-5-carboxylate]
- IC50 (JAK3; given as range class): 10 to 500 nM
- IC50 (JAK2; given as range class): 10 to 500 nM

Compound: C=C(COC)C(=O)Nc1cccc(-c2ncnc3[nH]cc(C(=O)OCC)c23)c1 [Example 5-45, ethyl 4-(3-{[2-(methoxymethyl)acryloyl]amino}phenyl)-7H-pyrrolo[2,3-d]pyrimidine-5-carboxylate]
- IC50 (JAK3): 0.025 nM
- IC50 (JAK2): > 1500 nM

Compound: CCOC(=O)c1c[nH]c2ncnc(-c3ccc4scnc4c3)c12 [Example 1-82, ethyl 4-(1,3-benzothiazol-5-yl)-7H-pyrrolo[2,3-d]pyrimidine-5-carboxylate]
- IC50 (JAK3; given as range class): 10 to 500 nM
- IC50 (JAK2; given as range class): 10 to 500 nM

Compound: C=C(F)C(=O)Nc1cccc(-c2ncnc3[nH]cc(C(=O)OCC)c23)c1 [Example 5-1, Ethyl 4-{3-[(2-fluoroacryloyl)amino]phenyl}-7H-pyrrolo[2,3-d]pyrimidine-5-carboxylate]
- IC50 (JAK3): 0.024 nM
- IC50 (JAK2): > 1500 nM

Compound: C=C(C)C(=O)Nc1cccc(-c2ncnc3[nH]cc(-c4ncco4)c23)c1 [Example 22, N-(3-(5-(Oxazol-2-yl)-7H-pyrrolo[2,3-d]pyrimidin-4-yl)phenyl)methacrylamide]
- IC50 (JAK3): 8 nM
- IC50 (JAK2): > 1500 nM

Compound: CCCOC(=O)c1c[nH]c2ncnc(-c3ccc4cn(C)nc4c3)c12 [Example 2-1, Propyl 4-(2-methyl-2H-indazol-6-yl)-7H-pyrrolo[2,3-d]pyrimidine-5-carboxylate]
- IC50 (JAK3): 9 nM
- IC50 (JAK2): 153 nM

Compound: C=C(C)C(=O)N1CCc2ccc(-c3ncnc4[nH]cc(C(=O)OCC)c34)cc21 [Example 4-21, ethyl 4-[1-(2-methylacryloyl)-2,3-dihydro-1H-indol-6-yl]-7H-pyrrolo[2,3-d]pyrimidine-5-carboxylate]
- IC50 (JAK3): 2.3 nM
- IC50 (JAK2): > 1500 nM

Compound: CCOC(=O)c1c[nH]c2ncnc(-c3cccc(NC(=O)/C(C)=C/c4ccccc4)c3)c12 [Example 5-43, ethyl 4-(3-{[(2E)-2-methyl-3-phenylprop-2-enoyl]amino}phenyl)-7H-pyrrolo[2,3-d]pyrimidine-5-carboxylate]
- IC50 (JAK3; given as range class): 10 to 500 nM
- IC50 (JAK2; given as range class): > 500 nM

Compound: C=C(C)C(=O)Nc1cc(-c2ncnc3[nH]cc(C(=O)OCC)c23)ccc1C(=O)N(C)C [Example 4-28, ethyl 4-{4-(dimethylcarbamoyl)-3-[(2-methylacryloyl)amino]phenyl}-7H-pyrrolo[2,3-d]pyrimidine-5-carboxylate]
- IC50 (JAK3): 1.5 nM
- IC50 (JAK2): > 1500 nM

Compound: C=C(C)C(=O)Nc1cc(-c2ncnc3[nH]cc(C(=O)OCC)c23)ccc1C [Example 4-10]
- IC50 (JAK3): 0.15 nM
- IC50 (JAK2): > 1500 nM

Compound: C=C(CN(C)C)C(=O)Nc1cccc(-c2ncnc3[nH]cc(C(=O)OCC)c23)c1 [Example 14, Ethyl-4-[3-({2-[(dimethylamino)methyl]acryloyl}amino)phenyl]-7H-pyrrolo[2,3-d]pyrimidine-5-carboxylate]
- IC50 (JAK3): 0.066 nM
- IC50 (JAK2): > 1500 nM

Compound: CCOC(=O)c1c[nH]c2ncnc(-c3ccc4cn(C)nc4c3)c12 [Example 1-5, ethyl 4-(2-methyl-2H-indazol-6-yl)-7H-pyrrolo[2,3-d]pyrimidine-5-carboxylate]
- IC50 (JAK3): 7.2 nM
- IC50 (JAK2): 273 nM

Compound: CCOC(=O)c1c[nH]c2ncnc(-c3ccc4c(c3)n(C)c(=O)n4C)c12 [Example 1-66, ethyl 4-(1,3-dimethyl-2-oxo-2,3-dihydro-1H-benzimidazol-5-yl)-7H-pyrrolo[2,3-d]pyrimidine-5-carboxylate]
- IC50 (JAK3; given as range class): 10 to 500 nM
- IC50 (JAK2; given as range class): > 500 nM

Compound: C=C(Br)C(=O)Nc1cccc(-c2ncnc3[nH]cc(C(=O)OCC)c23)c1 [Example 5-5, ethyl 4-{3-[(2-bromoacryloyl)amino]phenyl}-7H-pyrrolo[2,3-d]pyrimidine-5-carboxylate]
- IC50 (JAK3): 0.043 nM
- IC50 (JAK2): 892 nM

Compound: CCOC(=O)c1c[nH]c2ncnc(-c3ccccc3C)c12 [Example 1-38, ethyl 4-(2-methylphenyl)-7H-pyrrolo[2,3-d]pyrimidine-5-carboxylate]
- IC50 (JAK3; given as range class): 10 to 500 nM
- IC50 (JAK2; given as range class): > 500 nM

Compound: CCOC(=O)c1c[nH]c2ncnc(-c3cccc(NC(=O)/C=C/COC)c3)c12 [Example 5-8, ethyl 4-(3-{[(2E)-4-methoxybut-2-enoyl]amino}phenyl)-7H-pyrrolo[2,3-d]pyrimidine-5-carboxylate]
- IC50 (JAK3): 2.1 nM
- IC50 (JAK2): > 1500 nM

Compound: CCOC(=O)c1c[nH]c2ncnc(-c3ccc(Cl)cc3)c12 [Example 1-2, Ethyl 4-(4-chlorophenyl)-7H-pyrrolo[2,3-d]pyrimidine-5-carboxylate]
- IC50 (JAK3; given as range class): 10 to 500 nM
- IC50 (JAK2; given as range class): 10 to 500 nM

Compound: CCOC(=O)c1c[nH]c2ncnc(-c3cccc(NC(=O)/C=C/c4cccnc4)c3)c12 [Example 5-30, ethyl 4-(3-{[(2E)-3-pyridin-3-ylprop-2-enoyl]amino}phenyl)-7H-pyrrolo[2,3-d]pyrimidine-5-carboxylate]
- IC50 (JAK3; given as range class): 10 to 500 nM
- IC50 (JAK2; given as range class): > 500 nM

Compound: CCOC(=O)c1c[nH]c2ncnc(-c3ccc4c(c3)CN(C(=O)OC(C)(C)C)C4=O)c12 [Example 1-77, ethyl 4-[2-(tert-butoxycarbonyl)-1-oxo-2,3-dihydro-1H-isoindol-5-yl]-7H-pyrrolo[2,3-d]pyrimidine-5-carboxylate]
- IC50 (JAK3; given as range class): 10 to 500 nM
- IC50 (JAK2; given as range class): > 500 nM

Compound: C=C(C)C(=O)Nc1cc(-c2ncnc3[nH]cc(C(=O)OCC)c23)cc(OC)n1 [Example 4-4, Ethyl 4-{2-methoxy-6-[(2-methylacryloyl)amino]pyridin-4-yl}-7H-pyrrolo[2,3-d]pyrimidine-5-carboxylate]
- IC50 (JAK3): 0.049 nM
- IC50 (JAK2): > 1500 nM

Compound: C=C(C)C(=O)Nc1cc(F)cc(-c2ncnc3[nH]cc(C(=O)OCC)c23)c1 [Example 4-19, ethyl 4-{3-fluoro-5-[(2-methylacryloyl)amino]phenyl}-7H-pyrrolo[2,3-d]pyrimidine-5-carboxylate]
- IC50 (JAK3): 0.05 nM
- IC50 (JAK2): > 1500 nM

Compound: C=C(C)C(=O)Nc1ccc(F)c(-c2ncnc3[nH]cc(C(=O)OCC)c23)c1 [Example 4-18, ethyl 4-{2-fluoro-5-[(2-methylacryloyl)amino]phenyl}-7H-pyrrolo[2,3-d]pyrimidine-5-carboxylate]
- IC50 (JAK3): 0.11 nM
- IC50 (JAK2): > 1500 nM

Compound: CCOC(=O)c1c[nH]c2ncnc(-c3coc4ccccc34)c12 [Example 1-63, ethyl 4-(1-benzofuran-3-yl)-7H-pyrrolo[2,3-d]pyrimidine-5-carboxylate]
- IC50 (JAK3; given as range class): 10 to 500 nM
- IC50 (JAK2; given as range class): > 500 nM

Compound: c1ccc(Oc2ccccc2-c2c[nH]c3ncnc(-c4ccccc4)c23)cc1 [Example 32-6, 5-(2-phenoxyphenyl)-4-phenyl-7H-pyrrolo[2,3-d]pyrimidine]
- IC50 (JAK3; given as range class): 10 to 500 nM
- IC50 (JAK2; given as range class): > 500 nM
